Test results taken from article PMC9516332 (Frontiers in Oncology, 2022).
Where two headings read alike, the source gives them in different places.

Tests used:
[1] = target: panel of 255 wild-type kinases (Homo sapiens, UniProt P08581); test: Kinase panel profiling at 1 µmol/L (MSA or IMAP), percentage inhibition; assay type: biochemical; details: MET; 1 µmol/L single concentration
[2] = target: panel of 255 wild-type kinases (Homo sapiens, UniProt P31749); test: as above; assay type: biochemical; details: AKT1 kinase assay; 1 µmol/L single concentration; read-out: %-inhibition AKT1
[3] = target: T1, panel of 255 wild-type kinases (Homo sapiens, UniProt Q96PF2); test: as above; assay type: biochemical; details: kinase TSSK2; 1 µmol/L single concentration; read-out: %-inhibition at 1 µmol/L, TSSK2
T1 sequence (Q96PF2 1-358): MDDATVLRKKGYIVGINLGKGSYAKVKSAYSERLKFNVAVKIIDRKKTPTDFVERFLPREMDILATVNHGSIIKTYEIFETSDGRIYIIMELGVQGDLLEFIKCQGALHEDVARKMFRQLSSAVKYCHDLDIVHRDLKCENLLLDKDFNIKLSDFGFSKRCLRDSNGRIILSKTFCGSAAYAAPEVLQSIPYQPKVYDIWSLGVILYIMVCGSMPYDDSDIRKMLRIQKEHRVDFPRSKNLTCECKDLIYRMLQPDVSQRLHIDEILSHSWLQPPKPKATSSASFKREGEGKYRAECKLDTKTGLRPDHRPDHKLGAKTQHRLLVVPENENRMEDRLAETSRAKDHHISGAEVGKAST

[4] = target: panel of 255 wild-type kinases (Homo sapiens, UniProt Q9Y463); test: as above; assay type: biochemical; details: kinase DYRK1B; 1 µmol/L single concentration; read-out: %-inhibition at 1 µmol/L, DYRK1B
134 cancer cell lines [5] = system: 134 cancer cell lines
AP-1060 (ETV6-NTRK3) = test: Cell viability assay; details: read-out: IC50 in cell proliferation assay
134 cancer cell lines [6] = test: Cell viability assay (ATPlite, 72 hours), IC50 on cancer cell line panel

Q: Which inhibition at 1 µM [1] does the source give for `CCc1nc(C(N)=O)c(Nc2ccc(N3CCC(N4CCN(C)CC4)CC3)c(OC)c2)nc1NC1CCOCC1` [gilteritinib] here?
A: 90%

Q: What about the inhibition at 1 µM [2] of the same compound?
A: -22%

Q: And the inhibition at 1 µM [3]?
A: 55%

Q: And the inhibition at 1 µM [4]?
A: 34%

Q: And the IC50 (134 cancer cell lines [5])?
A: 0.237 µM

Q: And the IC50 (AP-1060 (ETV6-NTRK3))?
A: 0.417 µM

Q: What about the IC50 (134 cancer cell lines [6]; HEC-6, read-out: IC50 in cell proliferation assay, HEC-6 cell line (EGFR p.A289V)) of the same compound?
A: 1.43 µM

Q: What about the IC50 (134 cancer cell lines [6]; Homo sapiens, 769-P, read-out: IC50 in cell proliferation assay, cell line 769-P) of the same compound?
A: 1.15 µM

Q: And the IC50 (134 cancer cell lines [6]; Homo sapiens, 786-0, read-out: IC50 in cell proliferation assay, cell line 786-O)?
A: 0.947 µM

Q: What about the IC50 (134 cancer cell lines [6]; Homo sapiens, A 172, read-out: IC50 in cell proliferation assay, cell line A-172) of the same compound?
A: 1.63 µM

Q: And the IC50 (134 cancer cell lines [6]; Homo sapiens, A204, read-out: IC50 in cell proliferation assay, cell line A-204)?
A: 0.392 µM

Q: And the IC50 (134 cancer cell lines [6]; Homo sapiens, A498, read-out: IC50 in cell proliferation assay, cell line A-498)?
A: 0.552 µM

Q: And the IC50 (134 cancer cell lines [6]; Homo sapiens, A549, read-out: IC50 in cell proliferation assay, cell line A-549)?
A: 0.63 µM

Q: And the IC50 (134 cancer cell lines [6]; Homo sapiens, A704, read-out: IC50 in cell proliferation assay, cell line A-704)?
A: 0.962 µM

Q: What about the IC50 (134 cancer cell lines [6]; Homo sapiens, A-375, read-out: IC50 in cell proliferation assay, cell line A-375 (BRAF p.V600E)) of the same compound?
A: 0.4 µM

Q: What about the IC50 (134 cancer cell lines [6]; Homo sapiens, A-427, read-out: IC50 in cell proliferation assay, cell line A-427) of the same compound?
A: 0.248 µM

Q: What about the IC50 (134 cancer cell lines [6]; Homo sapiens, ACHN, read-out: IC50 in cell proliferation assay, cell line ACHN) of the same compound?
A: 0.294 µM

Q: What about the IC50 (134 cancer cell lines [6]; Homo sapiens, AN3-CA, read-out: IC50 in cell proliferation assay, cell line AN3-CA (FGFR2 p.N549K)) of the same compound?
A: 1.22 µM

Q: What about the IC50 (134 cancer cell lines [6]; Homo sapiens, ASPC1, read-out: IC50 in cell proliferation assay, cell line AsPC-1) of the same compound?
A: 0.545 µM

Q: What about the IC50 (134 cancer cell lines [6]; Homo sapiens, AU565, read-out: IC50 in cell proliferation assay, cell line AU565 (ERBB2 amplification)) of the same compound?
A: 1.31 µM

Q: And the IC50 (134 cancer cell lines [6]; Homo sapiens, BT-20, read-out: IC50 in cell proliferation assay, cell line BT-20)?
A: 4.21 µM

Q: What about the IC50 (134 cancer cell lines [6]; Homo sapiens, BT-474, read-out: IC50 in cell proliferation assay, cell line BT-474 (ERBB2 amplification)) of the same compound?
A: 13.9 µM

Q: And the IC50 (134 cancer cell lines [6]; Homo sapiens, BT-549, read-out: IC50 in cell proliferation assay, cell line BT-549)?
A: 0.469 µM

Q: And the IC50 (134 cancer cell lines [6]; Homo sapiens, BXPC-3, read-out: IC50 in cell proliferation assay, cell line BxPC-3)?
A: 0.409 µM

Q: What about the IC50 (134 cancer cell lines [6]; Homo sapiens, C-33-A, read-out: IC50 in cell proliferation assay, cell line C-33 A) of the same compound?
A: 0.344 µM

Q: And the IC50 (134 cancer cell lines [6]; Homo sapiens, CAL-27, read-out: IC50 in cell proliferation assay, cell line CAL-27)?
A: 0.366 µM

Q: What about the IC50 (134 cancer cell lines [6]; Homo sapiens, CCF-STTG1, read-out: IC50 in cell proliferation assay, cell line CCF-STTG1) of the same compound?
A: 4.06 µM

Q: What about the IC50 (134 cancer cell lines [6]; Homo sapiens, CCRF-CEM, read-out: IC50 in cell proliferation assay, cell line CCRF-CEM) of the same compound?
A: 1.69 µM

Q: What about the IC50 (134 cancer cell lines [6]; Homo sapiens, COLO 205, read-out: IC50 in cell proliferation assay, cell line COLO 205 (BRAF p.V600E)) of the same compound?
A: 1.06 µM

Q: And the IC50 (134 cancer cell lines [6]; Homo sapiens, COLO-829, read-out: IC50 in cell proliferation assay, cell line COLO 829 (BRAF p.V600E))?
A: 1.22 µM

Q: What about the IC50 (134 cancer cell lines [6]; Homo sapiens, DLD-1, read-out: IC50 in cell proliferation assay, cell line DLD-1) of the same compound?
A: 0.746 µM

Q: And the IC50 (134 cancer cell lines [6]; Homo sapiens, DU-4475, read-out: IC50 in cell proliferation assay, cell line DU4475 (BRAF p.V600E))?
A: 1.44 µM

Q: What about the IC50 (134 cancer cell lines [6]; Homo sapiens, Daoy, read-out: IC50 in cell proliferation assay, cell line Daoy) of the same compound?
A: 3.21 µM

Q: What about the IC50 (134 cancer cell lines [6]; Homo sapiens, DoTc2-4510, read-out: IC50 in cell proliferation assay, cell line DoTc2 4510) of the same compound?
A: 0.318 µM

Q: And the IC50 (134 cancer cell lines [6]; Homo sapiens, EOL1, read-out: IC50 in cell proliferation assay, cell line EoL-1 (FIP1L1-PDGFRA))?
A: 0.033 µM

Q: And the IC50 (134 cancer cell lines [6]; Homo sapiens, FaDu, read-out: IC50 in cell proliferation assay, cell line FaDu)?
A: 0.459 µM

Q: What about the IC50 (134 cancer cell lines [6]; Homo sapiens, G-361, read-out: IC50 in cell proliferation assay, cell line G-361 (BRAF p.V600E)) of the same compound?
A: 0.328 µM

Q: And the IC50 (134 cancer cell lines [6]; Homo sapiens, HCC827, read-out: IC50 in cell proliferation assay, cell line HCC827 (EGFR exon19del))?
A: 0.223 µM

Q: And the IC50 (134 cancer cell lines [6]; Homo sapiens, HCC4006, read-out: IC50 in cell proliferation assay, cell line HCC4006 (EGFR exon19del))?
A: 0.54 µM

Q: And the IC50 (134 cancer cell lines [6]; Homo sapiens, HCT-15, read-out: IC50 in cell proliferation assay, cell line HCT 15)?
A: 0.829 µM

Q: And the IC50 (134 cancer cell lines [6]; Homo sapiens, HCT-116, read-out: IC50 in cell proliferation assay, cell line HCT 116)?
A: 0.418 µM

Q: And the IC50 (134 cancer cell lines [6]; Homo sapiens, HEC-1, read-out: IC50 in cell proliferation assay, HEC-1 cell line)?
A: 0.462 µM

Q: And the IC50 (134 cancer cell lines [6]; Homo sapiens, HEC-1B, read-out: IC50 in cell proliferation assay, HEC-1-B cell line (EGFR p.A864V))?
A: 0.27 µM

Q: What about the IC50 (134 cancer cell lines [6]; Homo sapiens, HL-60, read-out: IC50 in cell proliferation assay, HL-60 cell line) of the same compound?
A: 0.438 µM

Q: What about the IC50 (134 cancer cell lines [6]; Homo sapiens, HT, read-out: IC50 in cell proliferation assay, HT cell line) of the same compound?
A: 3.41 µM

Q: What about the IC50 (134 cancer cell lines [6]; Homo sapiens, HT-1080, read-out: IC50 in cell proliferation assay, HT-1080 cell line) of the same compound?
A: 0.202 µM

Q: And the IC50 (134 cancer cell lines [6]; Homo sapiens, Hs746T, read-out: IC50 in cell proliferation assay, Hs 746.T cell line (MET exon14skip + amplification))?
A: 0.512 µM

Q: What about the IC50 (134 cancer cell lines [6]; Homo sapiens, Hs-578T, read-out: IC50 in cell proliferation assay, Hs 578T cell line) of the same compound?
A: 1.19 µM

Q: What about the IC50 (134 cancer cell lines [6]; Homo sapiens, HuTu80, read-out: IC50 in cell proliferation assay, HuTu 80 cell line) of the same compound?
A: 0.509 µM

Q: And the IC50 (134 cancer cell lines [6]; Homo sapiens, J82, read-out: IC50 in cell proliferation assay, J82 cell line)?
A: 0.372 µM

Q: And the IC50 (134 cancer cell lines [6]; Homo sapiens, Jurkat E6.1, read-out: IC50 in cell proliferation assay, Jurkat E6.1 cell line)?
A: 0.749 µM

Q: And the IC50 (134 cancer cell lines [6]; Homo sapiens, K562, read-out: IC50 in cell proliferation assay, K-562 cell line)?
A: 1.54 µM

Q: What about the IC50 (134 cancer cell lines [6]; Homo sapiens, KATO III, read-out: IC50 in cell proliferation assay, KATO III cell line (FGFR2 amplification)) of the same compound?
A: 0.718 µM

Q: And the IC50 (134 cancer cell lines [6]; Homo sapiens, KG-1, read-out: IC50 in cell proliferation assay, KG-1 cell line (FGFR1OP2-FGFR1))?
A: 0.392 µM

Q: And the IC50 (134 cancer cell lines [6]; Homo sapiens, KLE, read-out: IC50 in cell proliferation assay, KLE cell line)?
A: 0.317 µM

Q: What about the IC50 (134 cancer cell lines [6]; Homo sapiens, KMS-11, read-out: IC50 in cell proliferation assay, KMS-11 cell line (FGFR3 p.Y373C)) of the same compound?
A: 0.912 µM

Q: And the IC50 (134 cancer cell lines [6]; Homo sapiens, KU812, read-out: IC50 in cell proliferation assay, Ku812 cell line)?
A: 1.51 µM

Q: What about the IC50 (134 cancer cell lines [6]; Homo sapiens, Kasumi 1, read-out: IC50 in cell proliferation assay, Kasumi-1 cell line (KIT p.N822K)) of the same compound?
A: 0.219 µM

Q: What about the IC50 (134 cancer cell lines [6]; Homo sapiens, LC-2-ad, read-out: IC50 in cell proliferation assay, LC-2/ad cell line (CCDC6-RET)) of the same compound?
A: 0.158 µM

Q: What about the IC50 (134 cancer cell lines [6]; Homo sapiens, LNCaP-Clone-FGC, read-out: IC50 in cell proliferation assay, LNCaP clone FGC cell line) of the same compound?
A: 6.82 µM

Q: And the IC50 (134 cancer cell lines [6]; Homo sapiens, LS174T, read-out: IC50 in cell proliferation assay, LS174T cell line)?
A: 0.652 µM

Q: What about the IC50 (134 cancer cell lines [6]; Homo sapiens, LS-411N, read-out: IC50 in cell proliferation assay, LS411N cell line (BRAF p.V600E)) of the same compound?
A: 1.15 µM

Q: And the IC50 (134 cancer cell lines [6]; Homo sapiens, LoVo, read-out: IC50 in cell proliferation assay, LoVo cell line)?
A: 0.413 µM

Q: And the IC50 (134 cancer cell lines [6]; Homo sapiens, MCF7, read-out: IC50 in cell proliferation assay, MCF-7 cell line)?
A: 0.514 µM

Q: And the IC50 (134 cancer cell lines [6]; Homo sapiens, MDA-MB-231, read-out: IC50 in cell proliferation assay, MDA-MB-231 cell line)?
A: 1.5 µM

Q: What about the IC50 (134 cancer cell lines [6]; Homo sapiens, MDA-MB-453, read-out: IC50 in cell proliferation assay, MDA-MB-453 cell line) of the same compound?
A: 8.82 µM

Q: What about the IC50 (134 cancer cell lines [6]; Homo sapiens, MDA-MB-468, read-out: IC50 in cell proliferation assay, MDA-MB-468 cell line) of the same compound?
A: 4.89 µM

Q: What about the IC50 (134 cancer cell lines [6]; Homo sapiens, MG-63, read-out: IC50 in cell proliferation assay, MG-63 cell line) of the same compound?
A: 0.377 µM

Q: And the IC50 (134 cancer cell lines [6]; Homo sapiens, MIA PaCa-2, read-out: IC50 in cell proliferation assay, MIA PaCa-2 cell line)?
A: 0.34 µM
